Counter-ions that a name gives are not always drawn.
Columns and labels:
activated human C1 = assay: Test Code 026 (C1 inhibitor); format: biochemical; settings: serial two fold dilution assay; higher well number indicates higher activity; protection of human C2 from C1 and C4
Method: (§1) An active inhibitor protects C2 from C1 and C4; (ii) Test Code 035 (C3-C9 inhibitor)-This test determines the ability of the late components of human complement (C3-C9) to lyse EAC 142 in the presence of appropriate dilutions of the test compound. An active inhibitor protects EAC 142 from lysis by human C3-C9; and (iii) Cap 50 Test-Here, appropriate amounts of the test compound are added to a pool of guinea pig serum in vitro, after which the undiluted serum capillary tube assay of U.S. Pat. No. 3,876,376 is run. The concentration of compound inhibiting 50% is reported.

[1] = test system: late components of human complement (C3-C9); assay: Test Code 035 (C3-C9 inhibitor); format: biochemical; settings: serial two fold dilution assay; higher well number indicates higher activity; protection of EAC 142 from lysis
Method: as §1

## O=C(O)c1cc(OS(=O)(=O)O)c2c(c1)[C@H]([C@H]1c3cccc(O[C@@H]4O[C@H](COS(=O)(=O)O)[C@@H](OS(=O)(=O)O)[C@H](OS(=O)(=O)O)[C@H]4OS(=O)(=O)O)c3C(=O)c3c(OS(=O)(=O)O)cc(C(=O)O)cc31)c1cccc(O[C@@H]3O[C@H](COS(=O)(=O)O)[C@@H](OS(=O)(=O)O)[C@H](OS(=O)(=O)O)[C@H]3OS(=O)(=O)O)c1C2=O (relative stereo) [(R*,S*)-5,5'-Bis-(β-D-glucopyranosyloxy)-9,9',10,10'-tetrahydro-4,4'-dihydroxy-10,10'-dioxo-[9,9'-bianthracene]-2,2'-dicarboxylic acid, decakis (H-sulfate), decasodium salt]
Activated human C1
  026 (C1 inhibitor), activity in wells: 7 wells
[1]
  035 (C3-C9 inhibitor), activity in wells: 1 wells

## O=C(O)c1cc(OS(=O)(=O)O)c2c(c1)C(C1c3cccc(OC4OC(COS(=O)(=O)O)C(OS(=O)(=O)O)C(OS(=O)(=O)O)C4OS(=O)(=O)O)c3C(=O)c3c(OS(=O)(=O)O)cc(C(=O)O)cc31)c1cccc(OC3OC(COS(=O)(=O)O)C(OS(=O)(=O)O)C(OS(=O)(=O)O)C3OS(=O)(=O)O)c1C2=O [(R*,R*)-5,5'-Bis-(β-D-glucopyranosyloxy)-9,9',10,10'-tetrahydro-4,4'-dihydroxy-10,10'-dioxo-[9,9'-bianthracene]-2,2'-dicarboxylic acid, decakis (H-sulfate), decasodium salt]
Activated human C1
  026 (C1 inhibitor), activity in wells: 8 wells
[1]
  035 (C3-C9 inhibitor), activity in wells: 2 wells
